Counter-ions that a name gives are not always drawn. Like-named read-outs stand apart in the source and are kept apart here.
How the values were obtained:
[1] = system: Human Adarotene-resistant NCI-H460 (R9A) NSCLC; assay: Anti-proliferative activity, H460-R9A, 24 h + 48 h recovery, SRB; assay type: cell-based; conditions: 24 h exposure, read-out: IC50 ± SD H460-R9A
Experimental: (§1) Tumor cells were exposed for 24 h to new atypical retinoids (AR) and the anti-proliferative activity assessed upon 48 h recovery in drug-free medium with the SRB assay. RI=Resistance Index (ratio between the IC50 values of resistant and sensitive cells).

MM487-Luc mesothelioma [2] = assay: Anti-proliferative activity, MM487-Luc, 24 h + 48 h recovery, SRB; assay type: cell-based; conditions: Homo sapiens, 24 h exposure, read-out: IC50 ± SD MM487-Luc
Experimental: as §1

U87MG glioblastoma cells = assay: Anti-proliferative activity, U87MG, 24 h + 48 h recovery, SRB; assay type: cell-based; conditions: Homo sapiens, U-87 MG, 24 h exposure, read-out: IC50 ± SD U87MG
Experimental: as §1

[3] = system: Human Adarotene-resistant NCI-H460 (R9A) NSCLC; conditions: Zuco V. et al, Neoplasia 2005; cited from earlier work
[4] = system: H460-R9A retinoid resistant cells; assay: H460-R9A lung cancer subcutaneous xenograft in mice; conditions: Cisplatin 4 mg/kg IV q7dx4w, MIR002 50 mg/kg OS bid, qdx5/wx4w
Experimental: CD-1 nude and NOG mice, females, 4-5 weeks-old, were housed under specific-pathogen-free conditions in individually ventilated cages.
Cells were cultured in appropriated media and expanded in a 37° C. incubator with saturated humidity and an atmosphere of 95% air and 5% CO2, and were sub-cultured every 2-3 days. Before the injection in mice, cells were checked with MycoAlert® Mycoplasma Detection Kit (Lonza) to exclude mycoplasma contamination, counted by trypan blue dye exclusion, evaluated for cell viability (>95%).
H-460-R9A lung cancer cells were suspended at a concentration of 25×10^6/ml. 5×10^6 tumor cells were suspended in 0.2 ml of M199, then inoculated subcutaneously on the right flank of each animal.
MIR002 was dissolved to a concentration of 3.3 mg/mL in 10% DMSO, 5% ethanol, 20% Kolliphor® EL and 65% Na2CO3 10 mM pH 11 and administered by gavage; Cisplatin was dissolved to a concentration of 0.8 mg/mL in sterile saline solution and administered intravenously.
Four days after inoculation, tumor masses of H460-R9A were measured in length and width using a Mitutoyo caliper, mice were sorted basing on tumor volume (TV) and treatments were started. Tumor volume was calculated as follows: TV (mm3)=(Length (mm)×Width (mm)2)/2. Tumor growth was followed by biweekly measurements. Tumor Growth Inhibition (TGI) for each group was calculated as follows: TGI (%)=100−(mean TVtreated/mean TVcontrol×100). Mice were weighed twice a week.

Human NCI-H460 NSCLC = assay: Anti-proliferative activity, NCI-H460, 72 h, SRB; assay type: cell-based; conditions: for cytotoxic activity / IC50 range on NCI-H460 cells: SRB/MTT assay
Experimental: (§2) The anti-proliferative activity of the POLA1/HDAC dual inhibitors MIR002 and GEM144 was assessed on various cell lines from solid and hematological cancers.
(§3) Human tumor cells were treated with POLA1/HDAC dual inhibitors and cell survival assessed upon 72 h with the SRB assay. HDAC=Histone Deacetylase. POLA1=DNA Polymerase Alpha 1. RI=Resistance Index.

[5] = system: parent A2780 ovarian cancer cell line; assay: Anti-proliferative activity, A2780, 24 h + 48 h recovery, SRB; assay type: cell-based; conditions: Homo sapiens, 24 h exposure, read-out: IC50 ± SD A2780
Experimental: as §1

[6] = system: A2780-Dx multidrug-resistant ovarian cancer cell line; assay: Anti-proliferative activity, A2780-Dx, 24 h + 48 h recovery, SRB; assay type: cell-based, Human; conditions: for RI (Resistance Index, ratio between the IC50 values of resistant and sensitive cells): A2780-Dx vs A2780, 24 h exposure; for IC50: Homo sapiens, A2780/DX, 24 h exposure, SRB, read-out: IC50 ± SD A2780-Dx
Experimental: as §1
As described by Zuco V. et al in Neoplasia, 2005 July; 7(7):667-77, H460-R9A are about 70 fold resistant with respect to parental H460 to Adarotene. […] Ovarian cancer A2780 and its clone derivative A2780DX (Doxorubicin resistant) which overexpress P-glycoprotein (PGP), were used to evaluate the possibility of these new molecules to be absorbed at intestinal level. In fact, the overexpression of PGP, as well known, drastically reduces the possibility, after oral administration, of absorption of several chemotherapeutic agents (i.e. Paclitaxel, doxorubicin etc.). Since the IC50 of the tested compounds in A2780 and A2780DX, have similar values we conclude that they are not PGP substrates and they could be administrated to the patients via oral route.

U87MG-Luc (Glioma) = assay: Orthotopic glioma murine model (U87MG-Luc), IVIS imaging; assay type: in vivo, mice; conditions: 100 mg/kg IP, qdx5x4w, intracranial U87MG-Luc
Experimental: Orthotopic glioma murine model. 1×10^6 Brain glioblastoma bioluminescent cells (U-87 MG) were injected intracranically and tumor growth was evaluated through IVIS imaging system.
Tumor growth was followed by biweekly measurements. […] Mice were weighed twice a week. […] Tumor growth was further followed by weekly BLI measurements. TGI was calculated as for the H460 trial.
The activity of compound 2 (RC1375) was evaluated on glioma xenograft murine models. Brain glioblastoma bioluminescent cells (U-87 MG) were injected intracranically and tumor growth was evaluated through IVIS imaging system. After a week of injection, 2 (RC1375) (100 mg/kg) was administered intraperitoneally to mice (qdx5x4w).

[7] = system: ST1926-resistant H460 (H460-R9A) NSCLC; assay: Anti-proliferative activity, H460-R9A, 72 h, SRB; assay type: cell-based, human
Experimental: as §2, §3

[8] = system: parent A2780 ovarian carcinoma; assay: Anti-proliferative activity, A2780, 72 h, SRB; assay type: cell-based, human; conditions: read-out: A2780 IC50 ± SD
Experimental: as §2, §3

[9] = system: multidrug-resistant A2780-Dx ovarian carcinoma; assay: Anti-proliferative activity, A2780-Dx, 72 h, SRB; assay type: cell-based, human
Experimental: as §2, §3

MM473-Luc mesothelioma = assay: Anti-proliferative activity, MM473-Luc, 72 h, SRB; assay type: cell-based, Human
Experimental: as §2
(§4) HDAC=Histone Deacetylase. POLA1=DNA Polymerase Alpha 1. N.e.=not evaluated.

MM487-Luc mesothelioma [10] = assay: Anti-proliferative activity, MM487-Luc, 72 h, SRB; assay type: cell-based, Human
Experimental: as §2, §4

B16-Luc (Melanoma) = assay: Anti-proliferative activity, B16-Luc, 72 h, SRB; assay type: cell-based, mouse
Experimental: as §2, §4

NB4 (leukemia) = assay: Cell survival, NB4, 72 h, MTT; assay type: cell-based, Human; conditions: read-out: NB4 (leukemia) IC50 ± SD
Experimental: as §2
(§5) Tumor cells were treated with POLA1/HDAC dual inhibitors and cell survival assessed upon 72 h with the MTT assay. HDAC=Histone Deacetylase. POLA1=DNA Polymerase Alpha 1.

THP-1 (leukemia) = assay: Cell survival, THP-1, 72 h, MTT; assay type: cell-based, Human
Experimental: as §2, §5

U2932 (lymphoma) = assay: Cell survival, U2932, 72 h, MTT; assay type: cell-based, Human
Experimental: as §2, §5

Z138 (lymphoma) = assay: Cell survival, Z138, 72 h, MTT; assay type: cell-based, Human
Experimental: as §2, §5

DU145 prostate carcinoma = conditions: 72 h; SRB
Experimental: (§6) To this end, cells in the logarithmic phase of growth were seeded in 96-wells plastic plates, incubated overnight in culture medium, and treated for 72 h with scalar concentrations (2-fold dilution series) of the compounds.
(§7) Tumor cells were exposed to the inhibitors, and the anti-proliferative activity assessed upon 72 h with the SRB assay. N.e.=not evaluated.

HT29 colon carcinoma = conditions: 72 h; SRB
Experimental: as §6, §7

SW620 colon carcinoma = conditions: 72 h; SRB
Experimental: as §6, §7

[11] = Homo sapiens, NCI-H460, chronically exposed 72 h, SRB (Table 2), read-out: IC50 ± SD

SMILES: O=C(O)/C=C/c1ccc(-c2ccc(O)c(C34CC5CC(CC(C5)C3)C4)c2)cc1 [Adarotene, reference compound]
- IC50 [1]: 26900 ± 700 nM
- IC50 (MM487-Luc mesothelioma [2]): 9200 ± 300 nM
- IC50 (U87MG glioblastoma cells): 1630 ± 100 nM
- resistance of H460-R9A with respect to parental H460 [3]: about 70 fold
- BWL Day + 35 ([4]; Adarotene 15 mg/Kg OS q7dx5x4w): 12%

SMILES: CC(C)(Oc1ccc(-c2ccc(/C=C/C(=O)O)cc2)cc1C12CC3CC(CC(C3)C1)C2)C(=O)NO [BIO146]
- cytotoxic activity / IC50 range on NCI-H460 cells (Human NCI-H460 NSCLC; 72 h): micro molar range

SMILES: N.N.[Cl][Pt][Cl] [Cisplatin, reference compound]
- TGI Day + 35 ([4]; combination same doses): 34%

SMILES: O=C(O)/C=C/c1ccc(-c2ccc(OCCCC(=O)NO)c(C34CC5CC(CC(C5)C3)C4)c2)cc1 [Compound 1, 3-[3′-Adamantan-1-yl-4′-(3-hydroxycarbamoyl-propoxy)-biphenyl-4-yl]-acrylic acid]
- IC50 (Human NCI-H460 NSCLC; [11]): < 5000 nM
- IC50 [1]: 8300 ± 200 nM
- IC50 (MM487-Luc mesothelioma [2]): 1700 ± 80 nM
- IC50 [5]: 4200 ± 300 nM
- RI (Resistance Index, ratio between the IC50 values of resistant and sensitive cells) [6]: 0.9
- IC50 [6]: 3900 ± 100 nM

SMILES: O=C(O)/C=C/c1ccc(-c2ccc(OCCCCC(=O)NO)c(C34CC5CC(CC(C5)C3)C4)c2)cc1 [Compound 2, 3-[3′-Adamantan-1-yl-4′-(4-hydroxycarbamoyl-butoxy)-biphenyl-4-yl]-acrylic acid]
- IC50 (Human NCI-H460 NSCLC; [11]): < 5000 nM
- IC50 [1]: 5900 ± 100 nM
- IC50 (MM487-Luc mesothelioma [2]): 1900 ± 200 nM
- IC50 (U87MG glioblastoma cells): 5500 ± 900 nM
- IC50 [5]: 3700 ± 300 nM
- RI (Resistance Index, ratio between the IC50 values of resistant and sensitive cells) [6]: 1.3
- IC50 [6]: 4500 ± 70 nM
- BLI Average (Day) (U87MG-Luc (Glioma); day +35): 1.31 × 10^5 ± 1.26 × 10^5 p/s/cm^2/sr
- TGI (U87MG-Luc (Glioma)): 72%
- melting point: 224 °C (dec.)

SMILES: O=C(O)C=Cc1ccc(-c2ccc(OCCCCCCCC(=O)NO)c(C34CC5CC(CC(C5)C3)C4)c2)cc1 [Compound 3, 3-[3′-Adamantan-1-yl-4′-(7-hydroxycarbamoyl-heptyloxy)-biphenyl-4-yl]-acrylic acid]
- IC50 (Human NCI-H460 NSCLC; [11]): ≤ 5000 nM

SMILES: NCCSSCCNC(=O)CCCOc1ccc(-c2ccc(/C=C/C(=O)O)cc2)cc1C12CC3CC(CC(C3)C1)C2 [Compound 4, 2-(2-{4-[3-Adamantan-1-yl-4′-(2-carboxy-vinyl)-biphenyl-4-yloxy]-butyrylamino}-ethyldisulfanyl)-ethyl-ammonium; trifluoroacetate]
- IC50 (Human NCI-H460 NSCLC; [11]): ≤ 10000 nM

SMILES: O=C(O)/C=C/c1ccc(-c2ccc(OCCCC(=O)NCCSSCCNC(=O)C(Cc3ccc(O)c(Br)c3)=NO)c(C34CC5CC(CC(C5)C3)C4)c2)cc1 [Compound 5, 3-{3′-Adamantan-1-yl-4′-[3-(2-{2-[3-(3-bromo-4-hydroxy-phenyl)-2-hydroxyimino-propionylamino]-ethyldisulfanyl}-ethylcarbamoyl)-propoxy]-biphenyl-4-yl}-acrylic acid]
- IC50 (Human NCI-H460 NSCLC; [11]): < 5000 nM

SMILES: O=C(O)/C=C/c1ccc(-c2ccc(OC(=O)CCC(=O)NCCSSCCNC(=O)/C(Cc3ccc(O)c(Br)c3)=N/O)c(C34CC5CC(CC(C5)C3)C4)c2)cc1 [Compound 6, 3-{3′-Adamantan-1-yl-4′-[3-(2-{2-[3-(3-bromo-4-hydroxy-phenyl)-2-hydroxyimino-propionylamino]-ethyldisulfanyl}-ethylcarbamoyl)-propionyloxy]-biphenyl-4-yl}-acrylic acid]
- IC50 (Human NCI-H460 NSCLC; [11]): < 100 nM

SMILES: O=C(O)/C=C/c1ccc(-c2ccc(OCCC(=O)NO)c(C34CC5CC(CC(C5)C3)C4)c2)cc1 [Compound 12, 3-[3′-Adamantan-1-yl-4′-(2-hydroxycarbamoyl-ethoxy)-biphenyl-4-yl]-acrylic acid]
- IC50 [1]: 10600 ± 300 nM

SMILES: O=C(COc1ccc(-c2ccc3cc(C(=O)O)ccc3c2)cc1C12CC3CC(CC(C3)C1)C2)NOC1CCCCO1 (stereo not shown) [Compound 13, 6-{3-Adamantan-1-yl-4-[(tetrahydro-pyran-2-yloxycarbamoyl)-methoxy]-phenyl}-naphthalene-2-carboxylic acid]
- IC50 [1]: 16900 ± 500 nM

SMILES: O=C(COc1ccc(-c2ccc3cc(C(=O)O)ccc3c2)cc1C12CC3CC(CC(C3)C1)C2)NO [Compound 14, 6-(3-Adamantan-1-yl-4-hydroxycarbamoylmethoxy-phenyl)-naphthalene-2-carboxylic acid]
- IC50 [1]: 2300 ± 400 nM

SMILES: NNC(=O)COc1ccc(-c2ccc(C=CC(=O)O)cc2)cc1C12CC3CC(CC(C3)C1)C2 [Compound 17, 3-(3′-adamantan-1-yl-4′-hydrazinocarbonylmethoxy-biphenyl-4-yl)-acrylic acid trifluoroacetate]
- IC50 [1]: 17300 ± 1300 nM

SMILES: CC(Oc1ccc(-c2ccc(/C=C/C(=O)O)cc2)cc1C12CC3CC(CC(C3)C1)C2)C(=O)NO (stereo not shown) [GEM144]
- IC50 (Human NCI-H460 NSCLC; 72 h, SRB (Table 8), read-out: NCI-H460 IC50 ± SD): 260 ± 9 nM
- cytotoxic activity / IC50 range on NCI-H460 cells (Human NCI-H460 NSCLC; 72 h): nano molar range
- RI (Resistance Index) ([7]; H460-R9A vs NCI-H460): 8.5
- IC50 ([7]; SRB, read-out: H460-R9A IC50 ± SD): 2200 ± 90 nM
- IC50 [8]: 950 ± 40 nM
- IC50 ([9]; 72 h, SRB, read-out: A2780-Dx IC50 ± SD): 660 ± 8 nM
- RI (Resistance Index) ([9]; A2780-Dx vs A2780, 72 h): 0.7
- substrate for the P-gp drug efflux pump ([9]; indicated by low resistance index, A2780-Dx vs A2780): very poor substrate
- cytotoxicity, MM473 mesothelioma (MM473-Luc mesothelioma): very effective
- IC50 (MM473-Luc mesothelioma; read-out: MM473-Luc IC50 ± SD): 1400 ± 200 nM
- cytotoxicity, MM487 mesothelioma (MM487-Luc mesothelioma [10]): very effective
- IC50 (MM487-Luc mesothelioma [10]; read-out: MM487-Luc IC50 ± SD): 730 ± 200 nM
- cytotoxicity, B16 melanoma (B16-Luc (Melanoma)): very effective
- IC50 (B16-Luc (Melanoma); read-out: B16-Luc (Melanoma) IC50 ± SD): 370 ± 30 nM
- IC50 (NB4 (leukemia)): 230 ± 30 nM
- cytotoxicity, THP-1 leukemia (THP-1 (leukemia)): very effective
- IC50 (THP-1 (leukemia); read-out: THP-1 (leukemia) IC50 ± SD): 520 ± 20 nM
- cytotoxicity, U2932 lymphoma (U2932 (lymphoma)): very effective
- IC50 (U2932 (lymphoma); read-out: U2932 (lymphoma) IC50 ± SD): 770 ± 100 nM
- cytotoxicity, Z138 lymphoma (Z138 (lymphoma)): very effective
- IC50 (Z138 (lymphoma); read-out: Z138 (lymphoma) IC50 ± SD): 160 ± 30 nM
- cytotoxicity, DU145 prostate carcinoma (DU145 prostate carcinoma): very effective
- cytotoxicity, HT29 colon carcinoma (HT29 colon carcinoma): very effective
- cytotoxicity, SW620 colon carcinoma (SW620 colon carcinoma): very effective

— US20220168252A1, “RETINOID DERIVATIVES WITH ANTITUMOR ACTIVITY” (BIOGEM S.C. A R.L., priority 2016, published 2022)
